Here are results for 14 molecules from patent US12258337B2, “Bicyclic CX3CR1 receptor agonists” (Board of Regents, The University of Texas System, priority 2019, dated 2025).

The target in assay [1] is T1, hCX3CR1 (Homo sapiens, UniProt P49238).
T1 sequence (P49238 1-355): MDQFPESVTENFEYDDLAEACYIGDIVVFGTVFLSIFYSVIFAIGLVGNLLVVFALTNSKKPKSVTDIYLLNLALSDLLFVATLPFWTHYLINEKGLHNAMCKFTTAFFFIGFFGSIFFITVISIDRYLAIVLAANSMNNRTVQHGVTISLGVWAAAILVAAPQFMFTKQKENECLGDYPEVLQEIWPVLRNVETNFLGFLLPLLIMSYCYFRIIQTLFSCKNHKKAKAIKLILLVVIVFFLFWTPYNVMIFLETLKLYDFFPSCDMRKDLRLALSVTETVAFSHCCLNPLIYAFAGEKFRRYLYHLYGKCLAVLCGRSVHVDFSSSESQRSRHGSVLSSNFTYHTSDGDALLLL
Kind of assay: Ga16 assay, CX3CR1 agonism, Ca2+ sensitive photo-protein readout (FLIPRTETRA). Type of assay: cell-based. Set-up: expressed in transfected cells; stably expresses a Ca2+ sensitive photo-protein. The note with it: human CX3CR1 cell line. The essentials:
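Cells expressing human, mouse or rat CX3CR1 with a stably expressed Ca2+-sensitive photoprotein were loaded with 10 μM coelenterazine in tyrode buffer pH 7.4 for 3 h at room temperature. Agonist-mode luminescence kinetics were recorded for 90 s after compound injection on FLIPRTETRA. Dose-response runs were done in quadruplicate, with fractalkine as the reference agonist.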

Assay [2] addresses T1, hCX3CR1. Kind of assay: Suchi5 assay (HEK/NatClytin/CNG/Suchi5 transiently transfected hCX3CR1, Fluo-8 Ca2+ readout). The conditions noted are these: Suchi5 assay, HEK/NatClytin/CNG/Suchi5 transfected with hCX3CR1; read-out: hCX3CR1 agonism EC50. Type of assay: cell-based. Set-up: expressed in transfected cells; stably expresses a Ca2+ sensitive photo-protein. The essentials:
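HEK/NatClytin/CNG cells overexpressing Gαiq chimera Suchi5, transiently transfected with hCX3CR1, seeded 24 h before assay. Cells loaded 1 h at RT with 0.5X Fluo-8 in Tyrode buffer (pH 7.4); compounds injected on FLIPR and Ca2+ kinetic fluorescence followed for 90 s. Agonist: recombinant human fractalkine (CX3CL1).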

As for `O=C(NCC1(CN2CCC(O)C2)CCCC1)c1cc2c(s1)CCCCCC2` (racemic) [Example 25, N-[[1-[(3-hydroxypyrrolidin-1-yl)methyl]cyclopentyl]methyl]-4,5,6,7,8,9-hexahydrocycloocta[b]thiophene-2-carboxamide], the EC50 at hCX3CR1 [1] came to 10.5 µM; on hCX3CR1 [2], 11.8 µM.

For the molecule `CC(C)(CNC(=O)c1cc2c(s1)CCCCCC2)CN1CCCC1` [Example 1, N-(2,2-dimethyl-3-pyrrolidin-1-ylpropyl)-4,5,6,7,8,9-hexahydrocycloocta[b]thiophene-2-carboxamide], the half-maximal effective concentration (EC50) came to 11.5 µM on hCX3CR1 [1] and 13.9 µM at hCX3CR1 [2].

Consider `CN(C)CC1(CNC(=O)c2cc3c(s2)CCCCCC3)CCCC1` [Example 2, N-[[1-[(dimethylamino)methyl]cyclopentyl]methyl]-4,5,6,7,8,9-hexahydrocycloocta[b]thiophene-2-carboxamide], for which the EC50 was 9.3 µM at hCX3CR1 [1] and 5.4 µM on hCX3CR1 [2].

With `O=C(NCC1(CN2CCCC2)CCCC1)c1cc2c(s1)CCCCCC2` [Example 5, N-[[1-(pyrrolidin-1-ylmethyl)cyclopentyl]methyl]-4,5,6,7,8,9-hexahydrocycloocta[b]thiophene-2-carboxamide], the EC50 on hCX3CR1 [1] amounted to 8.4 µM; on hCX3CR1 [2] it was 12.9 µM.

Consider `CC(C)(CNC(=O)c1cc2c(s1)CCCCCC2)CN1CCCCC1` [Example 13, N-(2,2-dimethyl-3-piperidin-1-ylpropyl)-4,5,6,7,8,9-hexahydrocycloocta[b]thiophene-2-carboxamide], for which the EC50 was 12.3 µM on hCX3CR1 [1] and 9.6 µM at hCX3CR1 [2].

For the molecule `O=C(NCC1(CN2CCCCC2)CCCC1)c1cc2c(s1)CCCCCC2` [Example 15, N-[[1-(piperidin-1-ylmethyl)cyclopentyl]methyl]-4,5,6,7,8,9-hexahydrocycloocta[b]thiophene-2-carboxamide], the EC50 amounted to 19.3 µM on hCX3CR1 [1] and 5.5 µM on hCX3CR1 [2].

Consider `O=C(NCC1(CN2CCCC2)CCC1)c1cc2c(s1)CCCCCC2` [Example 21, N-[[1-(pyrrolidin-1-ylmethyl)cyclobutyl]methyl]-4,5,6,7,8,9-hexahydrocycloocta[b]thiophene-2-carboxamide], for which the values for the EC50 at hCX3CR1 [1] and on hCX3CR1 [2] were 6 µM and 4.7 µM, respectively.

With `CN(C)CC1(CNC(=O)c2cc3c(s2)CCCCCC3)CCC1` [Example 23, N-[[1-[(dimethylamino)methyl]cyclobutyl]methyl]-4,5,6,7,8,9-hexahydrocycloocta[b]thiophene-2-carboxamide], the EC50 at hCX3CR1 [1] turned out to be 10.5 µM; at hCX3CR1 [2] it was 6.5 µM.

Turning to `O=C(NCC1(CN2CCCC(O)C2)CCCC1)c1cc2c(s1)CCCCCC2` (stereo not shown) [Example 27, N-[[1-[(3-hydroxypiperidin-1-yl)methyl]cyclopentyl]methyl]-4,5,6,7,8,9-hexahydrocycloocta[b]thiophene-2-carboxamide], the EC50 on hCX3CR1 [1] came out at 11.3 µM; at hCX3CR1 [2] it was 7.5 µM.

`O=C(NCC1(CN2CCC(O)CC2)CCCC1)c1cc2c(s1)CCCCCC2` [Example 28, N-[[1-[(4-hydroxypiperidin-1-yl)methyl]cyclopentyl]methyl]-4,5,6,7,8,9-hexahydrocycloocta[b]thiophene-2-carboxamide]: the EC50 on hCX3CR1 [1] came out at 8.2 µM; at hCX3CR1 [2] it was 6.7 µM.

On to `CN(CCO)CC1(CNC(=O)c2cc3c(s2)CCCCCC3)CCC1` [Example 30, N-[[1-[[2-hydroxyethyl(methyl)amino]methyl]cyclobutyl]methyl]-4,5,6,7,8,9-hexahydrocycloocta[b]thiophene-2-carboxamide], for which the EC50 came to 10.2 µM at hCX3CR1 [1] and 36.1 µM at hCX3CR1 [2].

On to `CN(C)CC1(CNC(=O)c2cc3c(s2)CCCCCC3)CC(O)C1` (stereo not shown) [Example 31, N-[[1-[(dimethylamino)methyl]-3-hydroxycyclobutyl]methyl]-4,5,6,7,8,9-hexahydrocycloocta[b]thiophene-2-carboxamide], for which the half-maximal effective concentration (EC50) on hCX3CR1 [1] was 9.4 µM; on hCX3CR1 [2] it was 4.7 µM.

For the molecule `O=C(NCC1(CN2CCCC2)CC(O)C1)c1cc2c(s1)CCCCCC2` (stereo not shown) [Example 32, N-[[3-hydroxy-1-(pyrrolidin-1-ylmethyl)cyclobutyl]methyl]-4,5,6,7,8,9-hexahydrocycloocta[b]thiophene-2-carboxamide], the EC50 was found to be 9.1 µM on hCX3CR1 [1] and 5.8 µM at hCX3CR1 [2].

As for `CN(C)CC(C)(C)CNC(=O)c1cc2c(s1)CCCCCC2` [Example 70, N-[3-(dimethylamino)-2,2-dimethylpropyl]-4,5,6,7,8,9-hexahydrocycloocta[b]thiophene-2-carboxamide], the results for the EC50 on hCX3CR1 [1] and at hCX3CR1 [2] were 17 µM and 9.3 µM, respectively.

As usually defined, the EC50 is the concentration at which the effect is half-maximal.
